How the values were obtained:
[1] = Aqueous solubility by visual inspection in acetate buffer (pH 5); conditions: for solubility: sodium acetate buffer, pH 5, aqueous buffer, thermodynamic from solid
Description: For the solubility assessment, acetate buffer (pH 5) was selected as the media of choice to ensure prodrug stability during analysis.
High aqueous solubility was determined by visual inspection of 5 mg solid material in 0.5 mL
sodium acetate buffer solution. This media was selected to ensure stability of prodrugs during
dissolution in 50 mg/mL aqueous media.

[2] = Formation of progesterone oxime 3 from prodrugs in human plasma at 37 °C over 2 h; format: in vitro ADME; conditions: 2 h period
Description: Given the greater biological relevance of plasma, we focused on quantifying the formation of progesterone and allopregnanolone oxime in human plasma at 37 °C over a 2 h period. Results for selected progesterone prodrugs are presented in Figure A–C, illustrating the broad range of plasma cleavage rates as a function of promoiety design (see Figure S13 in Supporting Information for complete data set). Complete stability data for synthesized allopregnanolone prodrugs (Figures S18–S20) are provided in the Supporting Information. Given that their trends closely paralleled the progesterone series, they were not discussed in detail in the main text. […] This unexpected result prompted further investigation using computational modeling, described in the following section. […] Higher pK a values were associated with faster and more complete oxime formation, likely due to enhanced H-bonding which could stabilize the reactive syn-conformer. […] For the heterocyclic pyrrolidine and angle-strained series (Figure C), the release rates closely matched the experimentally determined prodrug half-lives (Table ), which were shorter in human plasma than in PBS. […] Although both 20s and 20t are capable of adopting the reactive syn-rotamer, their self-immolation reactivity diverged due to differences in linker geometry. The cyclopropane in 20s induces angle strain that hinders nucleophilic attack, rendering the compound stable under both PBS and plasma conditions. […] This intriguing result warrants further investigation, with follow-up studies currently in progress. Finally, the nucleophilic capacity of the amine tethers in prodrugs 20w–20z were evaluated based on their ability to cyclize in plasma, as detailed in the Supporting Information Figure S13.
1.2 Stability in Plasma and PBS via LCMS
Procaine (positive control) was purchased from Sigma-Aldrich. HPLC grade MeCN, MeOH, H2O, and FA were purchased from Fischer Scientific. Human plasma (cat. No. […]- […]
0102242) were obtained from BIOIVT. DPBS 1X (no calcium, no magnesium, pH = 7.03) was purchased from Thermo Fischer Scientific. Stock solutions were prepared in 100% DMSO, and suitable dilutions of target analytes were prepared in 0.1% FA /MeCN for method development.
For PBS assay Gibco® Dulbecco’s phosphate-buffered saline (DPBS 1X, no calcium, no magnesium, pH = 7.03) was utilized. All experiments were performed in duplicate and results are presented as the average of two experimental replicates.
Procedure for Plasma Stability Assay
Test compounds and positive control (i.e. procaine) were dissolved in DMSO to make a 10 mM stock solution and subsequently diluted to 500 μM in 50% MeCN and PBS. […] The supernatant was transferred to an LC-MS vial and analyzed by LC/MS-MS. […]

[3] = Stability in PBS at room temperature via HPLC (UV); format: physicochemical; conditions: phosphate-buffered saline (DPBS)
How it was run: (§1)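 Progesterone prodrugs dissolved at 1 mg/mL in PBS (pH 7.03) or 10 mM acetate buffer (pH 5.0), kept at RT and reinjected over time, HPLC-UV AUC at 254 nm. Percent parent remaining; k from ln(%remaining) vs time, pseudo-first-order t1/2 = 0.693/k; duplicates averaged.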

[4] = Stability in acetate buffer pH 5.0 at room temperature via HPLC (UV); format: physicochemical
How it was run: as §1

[5] = Plasma stability assay at 37 °C via LC-MS/MS, human plasma; format: in vitro ADME;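 further: prodrugs at 3 µM incubated in human plasma at 37 °C, intact prodrug quantified by LC-MS/MS over time, values are means of duplicate runs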
[6] = PBS stability assay at 37 °C via LC-MS/MS; format: physicochemical; conditions: 37 °C; for half-life at 3 µM: phosphate-buffered saline (DPBS), pH 7.03, PBS
Description: To address this, prodrug stability was further evaluated in human plasma at 37 °C using liquid chromatography–tandem mass spectrometry (LC-MS/MS). For direct comparison, a parallel screen was conducted in PBS under identical conditions (Table ). To prevent premature degradation prior to LC-MS/MS analysis, acetonitrile containing formic acid was used as a quenching solution to acidify and stabilize the prodrugs in vials. […] This limitation in detection, along with the need for a more uniform and broadly applicable assessment across all compounds, prompted us to monitor the formation of the parent oxime as an alternative readout.
Stability experiments in human plasma and PBS were performed via liquid chromatography-tandem mass spectrometry (LC-MS/MS) to determine and compare rate of cleavage of progesterone prodrugs as well as selected allopregnanolone prodrugs (3 µM) when incubated at 37 °C. All experiments were performed in duplicate and results are presented as the average of two experimental replicates.

[7] = pH 7.03, DPBS pH 7.03, RT, 1 mg/mL, HPLC 254 nm, read-out: t1/2 in PBS buffer at RT (Tables S1-S4) (converted)
[8] = pH 7.03, PBS, rt, read-out: t½: PBS, rt (Table S23) (converted)
[9] = pH 5, acetate buffer pH 5.0, RT, 1 mg/mL, HPLC 254 nm, read-out: t1/2 in acetate buffer at RT (Tables S5-S8) (converted)
[10] = pH 5, acetate buffer pH 5.0, rt, read-out: t½: pH 5.0, rt (Table S23) (converted)

Row | SMILES | Solubility pH 5.0, rt ([1]; sodium acetate buffer pH 5, rt, visual inspection) | solubility [1] [µg/mL] | Formation/release of oxime 3 in human plasma, in words [2] | half-life at 1 mg/mL [3, 7] [h] | half-life at 1 mg/mL ([3]; pH 7.03, PBS, rt, HPLC (UV), read-out: Half-life (t½) PBS rt (converted)) [h] | half-life at 1 mg/mL [3, 8] [h] | half-life at 1 mg/mL [4, 9] [h] | half-life at 1 mg/mL ([4]; pH 5, acetate buffer pH 5.0, rt, HPLC (UV), read-out: Half-life (t½) pH 5.0 rt (converted)) [h] | half-life at 1 mg/mL [4, 10] [h] | t1/2 in human plasma at 37 °C (Tables S10-S13, S18) ([5]; 3 µM, LC-MS/MS) | Plasma, 37 °C %rem. at 2h (Table S23) ([5]; 2 h) | half-life at 3 µM ([5]; human, plasma, read-out: Plasma, 37 °C t½ (Table S23) (converted)) [h] | PBS, 37 °C %rem. at 2h (Table S23) ([6]; PBS, 2 h) [%] | half-life at 3 µM ([6]; 3 µM, LC-MS/MS, read-out: t1/2 in PBS at 37 °C (Tables S14-S17) (converted)) [h] | half-life at 3 µM ([6]; read-out: PBS, 37 °C t½ (Table S23) (converted)) [h]
1 | CNCCN(CCN1CCCC1)C(=O)O/N=C(\C)[C@H]1CC[C@H]2[C@@H]3CCC4=CC(=O)CC[C@]4(C)[C@H]3CC[C@]12C.O=C(O)C(F)(F)F [20h] | degrades | < 10000 | rapid, first-order release | 7.23 ± 1.9 | 7.23 | 7.23 | 105 | 105 | 105 |  |  |  |  |  | 
2 | C/C(=N\OC(=O)N(C)CC[C@@H]1CCCN1)[C@H]1CC[C@H]2[C@@H]3CCC4=CC(=O)CC[C@]4(C)[C@H]3CC[C@]12C.O=C(O)C(F)(F)F [20n] |  | > 10000 | low levels of oxime | > 24 |  | > 24 | > 168 |  | > 168 | stable | stable | > 24 | 77 | 26.5 | 26.5

From publication PMC12516379, “Rotamer-Controlled Self-Immolative Linkers Enable Tunable Release of Neurosteroid Oxime Prodrugs” (ACS Medicinal Chemistry Letters, 2025)
